# Reference: patent publication US20120239131A1, “METHODS AND APPARATUS FOR TREATMENT OF ANEURYSMAL TISSUE” (Medtronic Vascular, Inc., priority 2011, published 2012)
# “Also recorded” adds a separate entry of the source.
# How the values were obtained:
# [1] = cited from earlier work
# [2] = cited from earlier work; remark: listed apart in the source
# [3] = Plasma drug content by HPLC; type: in vivo, ApoE−/− mice; settings: mouse plasma on day of sacrifice
# Procedure: (§1) In order to determine the effect of the various treatments on the progressive enlargement of the experimental AAAs the mice were followed with high frequency trans-abdominal ultrasound. Maximum aortic diameter was measured and recorded prior to pump implantation and then at 3, 7, 14, 21, and 28 days. All mice were sacrificed 28 days after pump implantation. Aortae were harvested and subjected to either histological analysis (Elastic Masson trichome, MAC2, CD31 and TUNEL staining) and analysis of mural gene expression. Plasma drug concentrations of experimental compounds were quantified on the day of sacrifice using high performance liquid chromatography (HPLC).
# [4] = tested on: genes involved in the pathophysiology of AAA; assay: Drug inhibition effect on differentially expressed genes, overall; type: in vivo, ApoE−/− mice
# Procedure: (§2) ApoE−/− mice used in this study were divided into different pretreatment groups: 1) Fluvastatin-MF; 2) Doxycycline-MD; 3) Irbesartan-MI; 4) Telmisartan-MT; 5) Control (water) and fed medicated chow or medicated drinking water 1 week prior to pump implantation. AngII (1000 ng·kg^−1 of body weight·min^−1) was infused subcutaneously via Alzet mini-osmotic pumps for 28 days. All mice were maintained on the medicated chow (MI & MT) or medicated drinking water (MF & MD) treatments which were delivered daily for a total of 28 days following pump implantation.
# as §1
# (§3) Total RNA was extracted from homogenized aortas using the Qiazol lysis reagent and RNeasy Lipid Tissue Mini kit. DNAse treatment was included in the procedure. RNA concentration was determined utilizing the Quant iT RNA assay kit. Complimentary deoxyribonucleic acid (cDNA) was synthesized from 1 μg RNA using High reverse cDNA transcription kit. Briefly the reaction tubes containing RNA, reverse transcriptase, buffer, RNAse inhibitor, and nuclease free water were incubated at 25° C. for 10 minutes to allow annealing. Reverse transcription was performed at 37° C. for 120 min, followed by a 5 sec incubation at 85° C. to inactivate the reverse transcriptase enzyme. The cDNA samples were cooled at 4° C. and stored at −80° C. until further use.
# (§4) Real time PCR was performed using a 384-well Taqman low density array (TLDA) card. Each sample specific PCR mix contained 50 ng of total RNA converted to cDNA. The PCR reaction for Taqman assays contained 50 μl Master Mix (Taqman Universal PCR Master Mix,) and 50 ul of cDNA and RNAase free water. Assays were performed to include appropriate controls (no template control). The RT-PCR protocol included an initial step of 50° C. (2 minutes) […], denaturation by a hot start at 95° C. for 10 min, followed by 40 cycles of a 2 step program (denaturation at 95° C. for 15 secs for primer annealing/extension at 60° C. for 1 min). Fluorescence data was collected at 60° C. Fluorescence was quantified with ABI PRISM 7900HT Sequence Detection System. To verify amplification of a specific target cDNA, data generated was analyzed using SDS 2.2.3 software (Sequence Detection System Software, Applied Biosystems). For all amplification plots, the baseline data were set with the automatic CT function available with SDS 2.2.3 calculating the optimal baseline range and threshold value by using the AutoCT algorithm. According to the manufacturer's instruction, a CT value of ≧39 corresponds to nonspecific amplification marking the limits of detection. For endogenous control GAPDH was normalized to B2M. For relative quantification (RQ), pooled ApoE−/− control was used as the calibrator (with expression equal to 1).
# [5] = tested on: AAA; assay: Aortic diameter by ultrasonography, ApoE−/−+Ang II AAA model; type: in vivo, ApoE−/− mice; settings: pretreatment 1 week before Ang II infusion, followed to 28 days; versus control and doxycycline
# Excerpt: The ApoE^−/−+Ang II AAA model is well established and supported by current scientific literature. Mice genetically predisposed to hypercholesterolemia develop aneurysms when treated with angiotensin II. Aneurysms generally develop within the first week after pump implantation and share many important pathologic characteristics with human AAA disease. ApoE−/− mice used in this study were divided into different pretreatment groups: 1) Fluvastatin-MF; 2) Doxycycline-MD; 3) Irbesartan-MI; 4) Telmisartan-MT; 5) Control (water) and fed medicated chow or medicated drinking water 1 week prior to pump implantation. AngII (1000 ng·kg^−1 of body weight·min^−1) was infused subcutaneously via Alzet mini-osmotic pumps for 28 days. All mice were maintained on the medicated chow (MI & MT) or medicated drinking water (MF & MD) treatments which were delivered daily for a total of 28 days following pump implantation. In order to determine the effect of the various treatments on the progressive enlargement of the experimental AAAs the mice were followed with high frequency trans-abdominal ultrasound. Maximum aortic diameter was measured and recorded prior to pump implantation and then at 3, 7, 14, 21, and 28 days. All mice were sacrificed 28 days after pump implantation. Aortae were harvested and subjected to either histological analysis (Elastic Masson trichome, MAC2, CD31 and TUNEL staining) and analysis of mural gene expression. Plasma drug concentrations of experimental compounds were quantified on the day of sacrifice using high performance liquid chromatography (HPLC).
# [6] = tested on: aneurysm; assay: Aneurysm incidence over time, ApoE−/−+Ang II AAA model; type: in vivo, ApoE−/− mice; settings: aneurysm = dissection or more than 50% increase in diameter; versus doxycycline and saline control
# Procedure: as §2, §1
# Aneurysm was defined as either the presence of dissection or more than 50% increase in diameter.
# [7] = tested on: ITGAL; assay: Aortic mural gene expression, RT-PCR (TLDA); type: in vivo, ApoE−/− mice; settings: fold change over ApoE−/− control; aorta, 28 days Ang II infusion
# Procedure: as §2, §1, §3, §4
# [8] = tested on: Osteopontin; assay: Aortic mural gene expression, RT-PCR (TLDA); type: in vivo, ApoE−/− mice; settings: fold change over ApoE−/− control; aorta, 28 days Ang II infusion
# Procedure: as §2, §1, §3, §4
# [9] = tested on: Tgfβ1; assay: Aortic mural gene expression, RT-PCR (TLDA); type: in vivo, ApoE−/− mice; settings: fold change over ApoE−/− control; aorta, 28 days Ang II infusion
# Procedure: as §2, §1, §3, §4
# [10] = tested on: Runx3; assay: Aortic mural gene expression, RT-PCR (TLDA); type: in vivo, ApoE−/− mice; settings: fold change over ApoE−/− control; aorta, 28 days Ang II infusion
# Procedure: as §2, §1, §3, §4
# [11] = tested on: HMOX 1; assay: Aortic mural gene expression, RT-PCR (TLDA); type: in vivo, ApoE−/− mice; settings: fold change over ApoE−/− control; aorta, 28 days Ang II infusion
# Procedure: as §2, §1, §3, §4
# [12] = tested on: CCR2; assay: Aortic mural gene expression, RT-PCR (TLDA); type: in vivo, ApoE−/− mice; settings: fold change over ApoE−/− control; aorta, 28 days Ang II infusion
# Procedure: as §2, §1, §3, §4
# [13] = tested on: MAPK8; assay: Aortic mural gene expression, RT-PCR (TLDA); type: in vivo, ApoE−/− mice; settings: fold change over ApoE−/− control; aorta, 28 days Ang II infusion
# Procedure: as §2, §1, §3, §4
# [14] = tested on: LOX; assay: Aortic mural gene expression, RT-PCR (TLDA); type: in vivo, ApoE−/− mice; settings: fold change over ApoE−/− control; aorta, 28 days Ang II infusion
# Procedure: as §2, §1, §3, §4
# [15] = tested on: Rac2; assay: Aortic mural gene expression, RT-PCR (TLDA); type: in vivo, ApoE−/− mice; settings: fold change over ApoE−/− control; aorta, 28 days Ang II infusion
# Procedure: as §2, §1, §3, §4
# [16] = tested on: TNF-α; assay: Aortic mural gene expression, RT-PCR (TLDA); type: in vivo, ApoE−/− mice; settings: fold change over ApoE−/− control; aorta, 28 days Ang II infusion
# Procedure: as §2, §1, §3, §4
# [17] = tested on: CCR5; assay: Aortic mural gene expression, RT-PCR (TLDA); type: in vivo, ApoE−/− mice; settings: fold change over ApoE−/− control; aorta, 28 days Ang II infusion
# Procedure: as §2, §1, §3, §4
# [18] = tested on: CCL2; assay: Aortic mural gene expression, RT-PCR (TLDA); type: in vivo, ApoE−/− mice; settings: fold change over ApoE−/− control; aorta, 28 days Ang II infusion
# Procedure: as §2, §1, §3, §4
# [19] = tested on: MMP-12; assay: Aortic mural gene expression, RT-PCR (TLDA); type: in vivo, ApoE−/− mice; settings: fold change over ApoE−/− control; aorta, 28 days Ang II infusion
# Procedure: as §2, §1, §3, §4
# [20] = tested on: Fibronectin -1; assay: Aortic mural gene expression, RT-PCR (TLDA); type: in vivo, ApoE−/− mice; settings: fold change over ApoE−/− control; aorta, 28 days Ang II infusion
# Procedure: as §2, §1, §3, §4
# [21] = tested on: CXCR4; assay: Aortic mural gene expression, RT-PCR (TLDA); type: in vivo, ApoE−/− mice; settings: fold change over ApoE−/− control; aorta, 28 days Ang II infusion
# Procedure: as §2, §1, §3, §4
# [22] = tested on: Cathepsin B; assay: Aortic mural gene expression, RT-PCR (TLDA); type: in vivo, ApoE−/− mice; settings: fold change over ApoE−/− control; aorta, 28 days Ang II infusion
# Procedure: as §2, §1, §3, §4
# [23] = tested on: Cybb; assay: Aortic mural gene expression, RT-PCR (TLDA); type: in vivo, ApoE−/− mice; settings: fold change over ApoE−/− control; aorta, 28 days Ang II infusion
# Procedure: as §2, §1, §3, §4
# [24] = tested on: ITGB2; assay: Aortic mural gene expression, RT-PCR (TLDA); type: in vivo, ApoE−/− mice; settings: fold change over ApoE−/− control; aorta, 28 days Ang II infusion
# Procedure: as §2, §1, §3, §4
# [25] = tested on: TIMP2; assay: Aortic mural gene expression, RT-PCR (TLDA); type: in vivo, ApoE−/− mice; settings: fold change over ApoE−/− control; aorta, 28 days Ang II infusion
# Procedure: as §2, §1, §3, §4
# [26] = tested on: Vav1; assay: Aortic mural gene expression, RT-PCR (TLDA); type: in vivo, ApoE−/− mice; settings: fold change over ApoE−/− control; aorta, 28 days Ang II infusion
# Procedure: as §2, §1, §3, §4
# [27] = tested on: MMP-8; assay: Aortic mural gene expression, RT-PCR (TLDA); type: in vivo, ApoE−/− mice; settings: fold change over ApoE−/− control; aorta, 28 days Ang II infusion
# Procedure: as §2, §1, §3, §4
# [28] = tested on: IL-7; assay: Aortic mural gene expression, RT-PCR (TLDA); type: in vivo, ApoE−/− mice; settings: fold change over ApoE−/− control; aorta, 28 days Ang II infusion
# Procedure: as §2, §1, §3, §4
# [29] = tested on: Cathepsin S; assay: Aortic mural gene expression, RT-PCR (TLDA); type: in vivo, ApoE−/− mice; settings: fold change over ApoE−/− control; aorta, 28 days Ang II infusion
# Procedure: as §2, §1, §3, §4
# [30] = target: ACE (Homo sapiens, UniProt P12821); settings: in vitro; cited from earlier work
# ACE, sequence (P12821 30-1306, species assumed): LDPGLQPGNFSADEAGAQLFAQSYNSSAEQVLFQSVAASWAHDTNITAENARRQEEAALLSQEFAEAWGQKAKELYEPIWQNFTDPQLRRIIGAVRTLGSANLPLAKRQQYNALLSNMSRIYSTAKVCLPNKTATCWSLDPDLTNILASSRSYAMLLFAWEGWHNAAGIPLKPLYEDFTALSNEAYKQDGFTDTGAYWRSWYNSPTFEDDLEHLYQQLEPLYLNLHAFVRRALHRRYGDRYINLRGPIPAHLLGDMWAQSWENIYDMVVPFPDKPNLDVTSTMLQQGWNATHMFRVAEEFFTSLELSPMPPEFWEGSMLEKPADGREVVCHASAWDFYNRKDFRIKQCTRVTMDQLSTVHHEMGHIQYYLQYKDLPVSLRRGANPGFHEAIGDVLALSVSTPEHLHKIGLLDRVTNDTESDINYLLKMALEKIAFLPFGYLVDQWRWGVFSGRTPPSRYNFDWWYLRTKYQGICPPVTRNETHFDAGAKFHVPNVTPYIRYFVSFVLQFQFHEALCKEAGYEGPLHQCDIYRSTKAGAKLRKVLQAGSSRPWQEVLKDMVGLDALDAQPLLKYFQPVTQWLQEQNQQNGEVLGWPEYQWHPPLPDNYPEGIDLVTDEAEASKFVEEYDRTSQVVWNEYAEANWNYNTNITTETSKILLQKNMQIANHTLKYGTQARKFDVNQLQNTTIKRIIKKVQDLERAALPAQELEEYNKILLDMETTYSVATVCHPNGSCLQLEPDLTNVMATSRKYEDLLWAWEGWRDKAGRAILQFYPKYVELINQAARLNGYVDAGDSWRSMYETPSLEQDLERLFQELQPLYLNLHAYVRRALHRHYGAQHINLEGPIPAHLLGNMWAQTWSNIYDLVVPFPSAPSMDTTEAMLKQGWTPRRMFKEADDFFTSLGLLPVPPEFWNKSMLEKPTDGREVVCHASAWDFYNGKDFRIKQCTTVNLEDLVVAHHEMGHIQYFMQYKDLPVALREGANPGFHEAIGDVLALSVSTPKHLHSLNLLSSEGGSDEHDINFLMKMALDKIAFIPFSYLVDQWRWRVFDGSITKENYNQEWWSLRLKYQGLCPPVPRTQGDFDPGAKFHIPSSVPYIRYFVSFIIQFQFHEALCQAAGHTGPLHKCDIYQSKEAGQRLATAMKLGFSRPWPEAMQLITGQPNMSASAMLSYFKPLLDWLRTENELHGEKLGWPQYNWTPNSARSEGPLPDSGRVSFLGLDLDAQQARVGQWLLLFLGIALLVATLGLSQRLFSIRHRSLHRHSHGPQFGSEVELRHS
structure (smiles),measurement,setting,value
COCCCOc1cc(C[C@@H](C[C@H](N)[C@@H](O)C[C@H](C(=O)NCC(C)(C)C(N)=O)C(C)C)C(C)C)ccc1OC [Aliskiren],Water solubility,[1],good water solubility
same,Half-life in the plasma,[2]; in vivo,approximately 24 hours
CCCCC1=NC2(CCCC2)C(=O)N1Cc1ccc(-c2ccccc2-c2nnn[nH]2)cc1 [Irbesartan],Plasma drug content,[3],lower plasma concentration
same,Down-regulation of genes involved in the pathophysiology of AAA,"[4]; ApoE−/− + Ang II AAA model, summary of Table 2",down-regulating the expression of genes
same,Total Score,"[4]; sum of heat map grades over 25 genes, ApoE−/− + Ang II group scored 55",7
same,Inhibition of aneurysm development/growth (aortic diameter),[5],effective in inhibiting/preventing aneurysm development
same,Inhibition of aneurysm development (aneurysm incidence),[6],effective in inhibiting aneurysm development; also recorded: inhibited aneurysm development well
same,ITGAL expression,[7],− (0 to 1 = −)
same,Osteopontin expression,[8],++ (1.51 to 3 = ++)
same,Tgfβ1 expression,[9],− (0 to 1 = −)
same,Runx3 expression,[10],− (0 to 1 = −)
same,HMOX 1 expression,[11],− (0 to 1 = −)
same,CCR2 expression,[12],− (0 to 1 = −)
same,MAPK8 expression,[13],− (0 to 1 = −)
same,LOX expression,[14],− (0 to 1 = −)
same,Rac2 expression,[15],− (0 to 1 = −)
same,TNF-α expression,[16],− (0 to 1 = −)
same,CCR5 expression,[17],− (0 to 1 = −)
same,CCL2 expression,[18],− (0 to 1 = −)
same,MMP-12 expression,[19],+++ (3.1 to 10 = +++)
same,Fibronectin -1 expression,[20],− (0 to 1 = −)
same,CXCR4 expression,[21],− (0 to 1 = −)
same,Cathepsin B expression,[22],− (0 to 1 = −)
same,Cybb expression,[23],− (0 to 1 = −)
same,ITGB2 expression,[24],− (0 to 1 = −)
same,TIMP2 expression,[25],− (0 to 1 = −)
same,Vav1 expression,[26],− (0 to 1 = −)
same,MMP-8 expression,[27],++ (1.51 to 3 = ++)
same,IL-7 expression,[28],− (0 to 1 = −)
same,Cathepsin S expression,[29],− (0 to 1 = −)
"NCCCC[C@H](N[C@@H](CCc1ccccc1)C(=O)O)C(=O)N1CCC[C@H]1C(=O)O [Lisinopril, lisinopril]",ACE inhibitor potency (in words),[30],slightly more potent ACE inhibitor than is enalaprilat
same,Time to peak concentrations in the plasma,[2]; after oral administration,about 7 hours
CCOC(=O)[C@H](CCc1ccccc1)N[C@@H](C)C(=O)N1CC2(C[C@H]1C(=O)O)SCCS2 [spirapril],Route of clearance/elimination,[2]; in vivo,balanced elimination by the liver and kidneys
"C[C@H](CS)C(=O)N1CCC[C@H]1C(=O)O [Captopril, captopril]",Bioavailability,[2]; given orally,about 75%
